According to patent US6914045B2, “Glycopeptide antibiotics” (Wyeth Holdings Corporation, priority 2001, dated 2005):

Legend:
Escherichia coli = test: in vitro antibacterial evaluation, MIC by broth dilution; format: cell-based; conditions: 18 hours at 35° C.
Summary of the method: (§1)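 MIC = lowest antibiotic concentration preventing visible growth; inoculum 5×10^5 CFU/mL; drug range 64-0.06 μg/mL; Muller-Hinton II […]; NCCLS M7-A2 guidance.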

Staphylococcus sp. = test: as above; format: cell-based; conditions: broth dilution, 18 hours at 35° C.
Summary of the method: as §1

Streptococcus sp. = test: as above; format: cell-based; conditions: broth dilution, 18 hours at 35° C.
Summary of the method: as §1

Enterococcus sp. = test: as above; format: cell-based; conditions: broth dilution, 18 hours at 35° C.
Summary of the method: as §1

[1] = tested on: Streptococcus pneumoniae (GC 1894); test: acute lethal infection in mice; format: in vivo; conditions: female CD-1 mice, intraperitoneal challenge, intravenous 30 min. after infection, 7 day survival
Summary of the method: (§2)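 Mice (female CD-1, 20+/−2 gm) receive bacteria ip in broth or hog gastric mucin, then test agent iv after 30 min. Median effective dose is calculated from 7 day survival pooled across 3 tests.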

[2] = tested on: Staphylococcus aureus-SMITH (GC 4543); test: acute lethal infection in mice; format: in vivo; conditions: acute lethal infection, female CD-1 mice, intraperitoneal challenge, intravenous 30 min. after infection, 7 day survival
Summary of the method: as §2

[3] = tested on: Enterococcus faecalis (GC 6189); test: acute lethal infection in mice; format: in vivo; conditions: female CD-1 mice, intraperitoneal challenge, intravenous 30 min. after infection, 7 day survival
Summary of the method: as §2

[4] = clinical pathology (serum clinical chemistry) in mice; format: in vivo; conditions: CD-1 mice, 20 mg/kg intravenously daily for 9 days, sera day 10
Procedure: 20-day-old CD-1 mice were divided into a vehicle control group (5 mice) and a treatment group (5 mice). Samples of glycopeptide antibiotics were administered at 20 mg/kg intravenously daily for 9 days.

[5] = anatomic pathology (histopathology of heart and kidney) in mice; format: in vivo; conditions: CD-1 mice, 20 mg/kg intravenously daily for 9 days, necropsy day 10, microscopic histopathology
Procedure: Samples of tissues from necropsied mice were formalin-fixed, paraffin-embedded, sectioned, stained with hematoxylin and eosin, and examined microscopically. Histopathologic findings were recorded. These findings were subjectively graded on a scale corresponding to slight, mild, moderate, marked and severe as compared to untreated controls.

CCCC(C)C1OCC2OC(OC3C(CO)OC(Oc4ccc(CC5NC(=O)C(C(C)c6ccccc6)NC(=O)CNC(=O)C(CO)NC(=O)C(C(O)C6CNC(=N)N6C6OC(CO)C(O)C(O)C6O)NC(=O)C(C(O)C6CNC(=N)N6)NC5=O)cc4)C(O)C3O)C(O)C(O)C2O1 (stereo not drawn) [Example 111, Cyclo[glycyl-β-methylphenylalanyl-O-[4-O-[4,6-O-(2-methylpentylidene)hexopyranosyl]-hexopyranosyl]tyrosyl-3-(2-iminoimidazolidin-4-yl)seryl-3-(3-hexopyranosyl-2-iminoimidazolidin-4-yl)serylseryl]]
0.03 mg/kg: median effective dose (ED50), Streptococcus pneumoniae (GC 1894) [1]
32 µg/mL: MIC Escherichia coli (ATCC 25922) (Escherichia coli; strain ATCC 25922)
1 µg/mL: MIC Coagulase Negative Staphylococcus (GC 4548) (Staphylococcus sp.) | MIC Coagulase Negative Staphylococcus (GC 4551) (Staphylococcus sp.) | MIC Coagulase Negative Staphylococcus (ID-3941) (Staphylococcus sp.) | MIC Staphylococcus aureus (ATCC 29213) (Staphylococcus sp.) | MIC Staphylococcus aureus (GC 1131) (Staphylococcus sp.) | MIC Staphylococcus aureus (GC 4541) (Staphylococcus sp.) | MIC Staphylococcus aureus (GC 4542) (Staphylococcus sp.) | MIC Staphylococcus aureus (GC 4544) (Staphylococcus sp.) | MIC Staphylococcus aureus (GC 4545) (Staphylococcus sp.) | MIC Staphylococcus aureus-SMITH (GC 4543) (Staphylococcus sp.) | MIC Staphylococcus haemolyticus (GC 4546) (Staphylococcus sp.) | MIC Staphylococcus aureus (GC 1131) (Staphylococcus sp.; inoculum 5×10^5 CFU/mL, strain GC 1131) | MIC Staphylococcus aureus (ATCC 29213) (Staphylococcus sp.; strain ATCC 29213) | MIC Staphylococcus aureus (GC 4541) (Staphylococcus sp.; strain GC 4541) | MIC Staphylococcus aureus (GC 4542) (Staphylococcus sp.; strain GC 4542) | MIC Staphylococcus aureus (GC 4544) (Staphylococcus sp.; strain GC 4544) | MIC Staphylococcus aureus (GC 4545) (Staphylococcus sp.; strain GC 4545) | MIC Staphylococcus haemolyticus (GC 4546) (Staphylococcus sp.; strain GC 4546) | MIC Coagulase Negative Staphylococcus (GC 4548) (Staphylococcus sp.; strain GC 4548) | MIC Coagulase Negative Staphylococcus (GC 4551) (Staphylococcus sp.; strain GC 4551) | MIC Coagulase Negative Staphylococcus (ID-3941) (Staphylococcus sp.; strain ID-3941) | MIC Staphylococcus aureus-SMITH (GC 4543) (Staphylococcus sp.; strain SMITH GC 4543) | MIC Streptococcus agalactiae (GC 4564) (Streptococcus sp.; Streptococcus agalactiae (GC 4564)) | MIC Streptococcus agalactiae (GC 4564) (Streptococcus sp.; strain GC 4564) | MIC Enterococcus faecalis (GC 2242) (Enterococcus sp.; Enterococcus faecalis (GC 2242)) | MIC Enterococcus faecium (GC 2243) (Enterococcus sp.; Enterococcus faecium (GC 2243)) | MIC Enterococcus faecalis (GC 2242) (Enterococcus sp.; strain GC 2242) | MIC Enterococcus faecium (GC 2243) (Enterococcus sp.; strain GC 2243)
0.28 mg/kg: median effective dose (ED50), Enterococcus faecalis (GC 6189) [3]
2 µg/mL: MIC Enterococcus avium (GC 4558) (Enterococcus sp.; Enterococcus avium (GC 4558)) | MIC Enterococcus faecalis (ATCC 29212) (Enterococcus sp.; Enterococcus faecalis (ATCC 29212)) | MIC Enterococcus faecalis (GC 4552) (Enterococcus sp.; Enterococcus faecalis (GC 4552)) | MIC Enterococcus faecalis (GC 4553) (Enterococcus sp.; Enterococcus faecalis (GC 4553)) | MIC Enterococcus faecalis (GC 4554) (Enterococcus sp.; Enterococcus faecalis (GC 4554)) | MIC Enterococcus faecium (GC 4556) (Enterococcus sp.; Enterococcus faecium (GC 4556)) | MIC Enterococcus faecalis (ATCC 29212) (Enterococcus sp.; strain ATCC 29212) | MIC Enterococcus faecalis (GC 4552) (Enterococcus sp.; strain GC 4552) | MIC Enterococcus faecalis (GC 4553) (Enterococcus sp.; strain GC 4553) | MIC Enterococcus faecalis (GC 4554) (Enterococcus sp.; strain GC 4554) | MIC Enterococcus faecium (GC 4556) (Enterococcus sp.; strain GC 4556) | MIC Enterococcus avium (GC 4558) (Enterococcus sp.; strain GC 4558)
0.14 mg/kg: median effective dose (ED50), Staphylococcus aureus-SMITH (GC 4543) [2]
0.5 µg/mL: MIC Coagulase Negative Staphylococcus (GC 4547) (Staphylococcus sp.) | MIC Coagulase Negative Staphylococcus (GC 4549) (Staphylococcus sp.) | MIC Coagulase Negative Staphylococcus (GC 4547) (Staphylococcus sp.; strain GC 4547) | MIC Coagulase Negative Staphylococcus (GC 4549) (Staphylococcus sp.; strain GC 4549) | MIC Streptococcus pneumoniae (GC 4565) (Streptococcus sp.; Streptococcus pneumoniae (GC 4565)) | MIC Streptococcus pyogenes (ID-3187) (Streptococcus sp.; Streptococcus pyogenes (ID-3187)) | MIC Streptococcus pneumoniae (GC 4565) (Streptococcus sp.; strain GC 4565) | MIC Streptococcus pyogenes (ID-3187) (Streptococcus sp.; strain ID-3187) | MIC Enterococcus faecium (GC 4557) (Enterococcus sp.; Enterococcus faecium (GC 4557)) | MIC Enterococcus faecium (GC 4557) (Enterococcus sp.; strain GC 4557)

CC(c1ccccc1)C1NC(=O)CNC(=O)C(CO)NC(=O)C(C(O)C2CNC(=N)N2C2OC(CO)C(O)C(O)C2O)NC(=O)C(C(O)C2CNC(=N)N2)NC(=O)C(Cc2ccc(OC3OC(CO)C(OC4OC5COC6(OC5C(O)C4O)C4CC5CC(C4)CC6C5)C(O)C3O)cc2)NC1=O (stereo not drawn) [Example 105, Cyclo[glycyl-β-methylphenylalanyl-O-[4-O-[4,6-O-(2-adamantylidene)hexopyranosyl]hexopyranosyl]tyrosyl-3-(2-iminoimidazolidin-4-yl)seryl-3-(3-hexopyranosyl-2-iminoimidazolidin-4-yl)serylseryl]]
0.25 to 2 µg/mL: MIC Staphylococcus aureus (GC 4544) (Staphylococcus sp.)
1 to 2 µg/mL: MIC Staphylococcus aureus (GC 3053) (Staphylococcus sp.) | MIC Enterococcus faecalis (ATCC 29212) (Enterococcus sp.; strain ATCC 29212) | MIC Enterococcus faecium (GC 2243) (Enterococcus sp.; strain GC 2243) | MIC Enterococcus faecalis (GC 2691) (Enterococcus sp.; strain GC 2691) | MIC Enterococcus faecalis (GC 3059) (Enterococcus sp.; strain GC 3059) | MIC Enterococcus faecalis (GC 4552) (Enterococcus sp.; strain GC 4552) | MIC Enterococcus faecalis (GC 4553) (Enterococcus sp.; strain GC 4553) | MIC Enterococcus faecalis (GC 4554) (Enterococcus sp.; strain GC 4554) | MIC Enterococcus faecium (GC 4557) (Enterococcus sp.; strain GC 4557) | MIC Enterococcus avium (GC 4558) (Enterococcus sp.; strain GC 4558) | MIC Enterococcus faecalis (GC 6189) (Enterococcus sp.; strain GC 6189)
+480%: Clinical Chemistry (Day 10) % of Control, ALT [4]
+35%: Clinical Chemistry (Day 10) % of Control, BUN [4]
32 µg/mL: MIC Escherichia coli (GC 4559) (Escherichia coli; strain GC 4559)
0.5 to 1 µg/mL: MIC Coagulase Negative Staphylococcus (GC 4547) (Staphylococcus sp.) | MIC Coagulase Negative Staphylococcus (GC 4549) (Staphylococcus sp.) | MIC Coagulase Negative Staphylococcus (GC 6257) (Staphylococcus sp.) | MIC Staphylococcus aureus (GC 3051) (Staphylococcus sp.) | MIC Staphylococcus aureus (GC 4542) (Staphylococcus sp.) | MIC Coagulase Negative Staphylococcus (GC 4547) (Staphylococcus sp.; strain GC 4547) | MIC Coagulase Negative Staphylococcus (GC 4549) (Staphylococcus sp.; strain GC 4549) | MIC Coagulase Negative Staphylococcus (GC 6257) (Staphylococcus sp.; strain GC 6257)
0.04 mg/kg: median effective dose (ED50), Streptococcus pneumoniae (GC 1894) [1]
+++: Anatomical Pathology (Day 10), Heart [5] | Anatomical Pathology (Day 10), Kidney [5]
<0.5 to 1 µg/mL: MIC Coagulase Negative Staphylococcus (GC 4548) (Staphylococcus sp.) | MIC Coagulase Negative Staphylococcus (GC 4551) (Staphylococcus sp.) | MIC Staphylococcus aureus (ATCC 29213) (Staphylococcus sp.) | MIC Staphylococcus aureus (GC 4541) (Staphylococcus sp.) | MIC Staphylococcus aureus (GC 4545) (Staphylococcus sp.) | MIC Staphylococcus haemolyticus (GC 4546) (Staphylococcus sp.) | MIC Staphylococcus haemolyticus (GC 4546) (Staphylococcus sp.; strain GC 4546) | MIC Coagulase Negative Staphylococcus (GC 4548) (Staphylococcus sp.; strain GC 4548) | MIC Coagulase Negative Staphylococcus (GC 4551) (Staphylococcus sp.; strain GC 4551)
0.5 to 2 µg/mL: MIC Escherichia coli (GC 4560) (Escherichia coli; strain GC 4560) | MIC Enterococcus faecalis (GC 2242) (Enterococcus sp.; strain GC 2242) | MIC Enterococcus faecium (GC 4556) (Enterococcus sp.; strain GC 4556)
0.25 to 1 µg/mL: MIC Staphylococcus aureus (GC 1131) (Staphylococcus sp.) | MIC Staphylococcus aureus-SMITH (GC 4543) (Staphylococcus sp.)
<0.06 µg/mL: MIC Streptococcus pneumoniae (ATCC 6301) (Streptococcus sp.; strain ATCC 6301) | MIC Streptococcus pneumoniae (GC 1894) (Streptococcus sp.; strain GC 1894) | MIC Streptococcus pneumoniae (GC 4565) (Streptococcus sp.; strain GC 4565)
